# Results taken from US20130005741A1, “SUBSTITUTED PYRIMIDINE AS A PROSTAGLANDIN D2 RECEPTOR ANTAGONIST” (AVENTIS PHARMACEUTICALS INC., priority 2010, published 2013).
# pIC50: −log10 of the molar value. Structures can show the parent of a compound that is named as a salt.
# Target: T1, human prostaglandin D2 receptor (DP) (Homo sapiens, UniProt Q13258)
# T1 construct: endogenous in cells; host or cells: human platelets in platelet-rich plasma from donor blood
# T1 sequence (Q13258 1-359): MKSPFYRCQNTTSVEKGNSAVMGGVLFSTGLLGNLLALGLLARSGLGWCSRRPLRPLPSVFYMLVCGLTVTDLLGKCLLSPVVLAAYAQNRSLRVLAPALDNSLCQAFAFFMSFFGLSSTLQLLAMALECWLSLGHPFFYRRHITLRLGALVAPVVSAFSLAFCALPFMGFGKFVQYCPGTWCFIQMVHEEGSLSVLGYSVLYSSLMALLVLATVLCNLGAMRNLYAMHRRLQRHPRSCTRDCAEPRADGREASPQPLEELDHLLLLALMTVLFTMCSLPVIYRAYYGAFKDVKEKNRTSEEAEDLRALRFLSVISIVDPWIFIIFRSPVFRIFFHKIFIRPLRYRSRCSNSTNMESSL
# Assay: BW245C-induced cAMP accumulation in human platelet rich plasma (hPRP) by HTRF cAMP assay
# Format: cell-based
# Settings: inhibition of BW245C (25 nM)-induced cAMP accumulation in human platelet-rich plasma
# From the text: Assessment of Antagonist Activities of Compounds on BW245C-Induced cAMP
# Accumulation in Human Platelet Rich Plasma (hPRP) by HTRF cAMP Assay
# The purpose of the assay is to assess compound antagonist activity at the human prostaglandin D2 receptor (DP), also known as (DP1), in the presence of plasma proteins. DP is a Gs-protein coupled receptor, the activation of which induces cAMP accumulation. BW245C is a DP selective agonist. Therefore, by measuring inhibition of BW245C-induced 3′-5′-cyclic adenosine monophosphate (cAMP) accumulation in human platelet-rich plasma (hPRP), the assay enables us to identify or confirm antagonist compounds at the human DP and/or IP receptors.
# The principle of the assay is based on HTRF technology (Homogeneous Time-Resolved Fluorescence). The method is a competitive immunoassay between native cAMP produced by cells and the tracer cAMP labeled with the dye d2. The tracer is visualized by a monoclonal antibody anti-cAMP labeled with cryptate. The specific signal (i.e. energy transfer) is inversely related to the concentration of cAMP in the standards or samples. The assay was carried out using the cAMP HiRange HTRF kit from Cisbio (catalog number 62AM6PEB, 888-963-4567).
# Preparation of Human Platelet Rich Plasma (hPRP): Human blood was obtained from sanofi-aventis on-site blood donor panel. […]
row,SMILES,pIC50
1,"COc1nc(NCCc2ccc(OC(F)(F)F)cc2)cc(N2CCC[C@H](CC(=O)O)C2)n1 (single isomer, unassigned) [(R) enantiomer]",6.81
2,"COc1nc(NCCc2ccc(OC(F)(F)F)cc2)cc(N2CCC[C@@H](CC(=O)O)C2)n1 [drawing 23, (S)1-{2-Methoxy-6-[2-(4-trifluoromethoxy-phenyl)-ethylamino]-pyrimidin-4-yl}-piperidin-3-yl)-acetic acid, phosphoric acid salt]",7.14
